Assay [1] relates to KB. Description: Cytotoxicity against human KB cells by SRB assay. It counts as functional, cell-based. On the technique in general: In SRB staining, fixed cells bind dye roughly in proportion to their protein.
Assay [2] has as its system NCI-H187. Briefly: Cytotoxicity against human NCI-H187 cells by SRB assay. It is filed as functional, cell-based.
The nature of assay [3]: Cytotoxicity against human BC cells by SRB assay. It counts as functional, cell-based.
Assay [4] relates to KB. Description: Cytotoxicity against human KB cells at 20 ug/ml by SRB assay. It counts as functional, cell-based.
For assay [5], the system named is NCI-H187. Description: Cytotoxicity against human NCI-H187 cells at 20 ug/ml by SRB assay. It is filed as functional, cell-based.
For assay [6], the system named is BC. Briefly: Cytotoxicity against human BC cells at 20 ug/ml by SRB assay. It counts as functional, cell-based.
Assay [7] has as its system Plasmodium falciparum. Briefly: Antimalarial activity after 48 hrs against multidrug-resistant Plasmodium falciparum K1. It counts as functional, organism-based.

SMILES strings stand for the structures. Activity calls are given as the source filed them. The rule behind the calls is not given here.

In general, IC50 refers to the point on the concentration scale where inhibition reaches its midpoint. Low values mean greater potency in that assay, high ones weaker potency in that assay.

For the molecule `C[C@@H]1C[C@H](O)[C@]2(O)O[C@@H]3C[C@@]4(C=O)[C@@H](CC[C@@H]5[C@@H]4CC[C@]4(C)[C@@H](C6=CC(=O)OC6)C[C@@H](O)[C@]54O)C[C@H]3O[C@@H]2O1`, the IC50 in assay [1] amounted to 602 nM; in assay [2] it was 3330 nM; in assay [3], 547 nM.
`C[C@@H]1C[C@H](O)[C@]2(O)O[C@@H]3C[C@@]4(C=O)[C@@H](CC[C@@H]5[C@@H]4CC[C@]46CO[C@]7(COC(=O)C7)[C@H]4CC[C@]56O)C[C@H]3O[C@@H]2O1`: the IC50 in assay [1] stood at 1290 nM; in assay [2], 3640 nM; in assay [3], 2210 nM.
In the case of `COC(=O)[C@@]1(O)C[C@@H](C)O[C@H]1O[C@@H]1C[C@@H]2CC[C@@H]3[C@H](CC[C@]4(C)[C@@H](C5=CC(=O)OC5)CC[C@]34O)[C@@]2(C(=O)O)C[C@H]1O`, the outcome in assay [4], in assay [5] and in assay [6] was inactive.
As to `COC(=O)[C@@]1(O)C[C@@H](C)O[C@H]1O[C@@H]1C[C@@H]2CC[C@@H]3[C@H](CC[C@]4(C)[C@@H](C5=CC(=O)OC5)CC[C@]34O)[C@@]2(C=O)C[C@H]1O` [CALACTINICACID METHYL ESTER], the IC50 came out at 3730 nM in assay [1], 14400 nM in assay [2] and 5650 nM in assay [3].
Turning to `C[C@@H]1C[C@@H](O)[C@]2(O)O[C@@H]3C[C@@]4(C=O)[C@@H](CC[C@@H]5[C@@H]4CC[C@]4(C)[C@@H](C6=CC(=O)OC6)CC[C@]54O)C[C@H]3O[C@@H]2O1` [CALACTIN], the IC50 in assay [1] turned out to be 41.3 nM; in assay [2], 345 nM; in assay [3], 20.7 nM. Also, the result in assay [7] was inactive.
Regarding `C[C@@H]1C[C@H](O)[C@]2(O)O[C@@H]3C[C@@]4(C=O)[C@@H](CC[C@@H]5[C@@H]4CC[C@]4(C)[C@@H](C6=CC(=O)OC6)CC[C@]54O)C[C@H]3O[C@@H]2O1` [CALOTROPIN], the IC50 in assay [1] was found to be 62 nM; in assay [2] it was 471 nM; in assay [3] it was 41.3 nM. Besides, in assay [7], the result was inactive.
As for `C[C@]12CC[C@H](O)C[C@H]1CC[C@@H]1[C@@H]2CC[C@]2(C)[C@@H](C3=CC(=O)OC3)CC[C@]12O` [DIGITOXIGENIN], the results for the IC50 in assay [1], in assay [2] and in assay [3] were 9610 nM, 9770 nM and 8950 nM, respectively. Moreover, the outcome in assay [7] was inactive.
Regarding `COc1cccc2c1C(=O)c1c(O)c3c(c(O)c1C2=O)C[C@@](O)(C(=O)CO)C[C@@H]3O[C@H]1C[C@H](N)[C@H](O)[C@H](C)O1` [DOXORUBICIN], the IC50 was 219 nM in assay [1], 40.5 nM in assay [2] and 288 nM in assay [3].
With `Cc1c2ccncc2c(C)c2c1[nH]c1ccccc12` [ELLIPTECINE], the IC50 stood at 812 nM in assay [1], 2230 nM in assay [2] and 682 nM in assay [3].

The values are drawn from ChEMBL document CHEMBL1158048, “19-Nor- and 18,20-epoxy-cardenolides from the leaves of Calotropis gigantea” (J Nat Prod, 2006).
